Measured values taken from paper PMC6383986, “Fragment-Based Covalent Ligand Screening Enables Rapid Discovery of Inhibitors for the RBR E3 Ubiquitin Ligase HOIP” (Journal of the American Chemical Society, 2019).

Target: T1, wild type HOIP RBR domain (Homo sapiens, UniProt Q96EP0)
T1 construct: made in house; host or cells: E. coli BL21-GOLD(DE3)
T1 sequence (Q96EP0 697-1072): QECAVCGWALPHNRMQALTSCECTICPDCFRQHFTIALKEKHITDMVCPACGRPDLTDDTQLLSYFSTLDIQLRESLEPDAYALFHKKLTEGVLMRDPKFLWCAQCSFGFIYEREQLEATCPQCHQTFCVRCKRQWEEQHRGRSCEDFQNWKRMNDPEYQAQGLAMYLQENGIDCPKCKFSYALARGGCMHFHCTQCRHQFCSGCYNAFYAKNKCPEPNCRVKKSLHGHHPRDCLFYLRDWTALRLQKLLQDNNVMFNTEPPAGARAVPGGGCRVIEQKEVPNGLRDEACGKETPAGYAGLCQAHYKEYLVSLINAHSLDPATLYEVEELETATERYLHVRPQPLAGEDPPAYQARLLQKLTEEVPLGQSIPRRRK
Test: Protein LC-MS kinetics of covalent labeling
Type: binding
Protocol: negative control and compound solutions data points were acquired after 0.5, 4, and 24 h […]
Protocol as described above, using the HOIP RBR C885S mutant (155 µM stock solution in 50 mM HEPES, 150 mM NaCl, 1 mM DTT, pH 7.5) and 50 mM HEPES, 150 mM NaCl, pH 7.5 buffer.
The stock solution at 4 µM (25 µL per sample, final concentration 2 µM, 87 µg/mL), was mixed with buffer (24.5 µL) and compound (5) (0.5 µL of 2, and 20 mM stock solutions in DMSO, giving a final concentration of 20 and 200 µM respectively, and 1% DMSO). Data points were acquired after 0.5 and 4 h incubation.
The HOIP RBR domain wild type was diluted with 50 mM HEPES, 150 mM NaCl, pH 7.5 buffer to afford a new stock solution at 2.02 µM, which was aliquoted into 10 × 297 µL. Compound (5) stock solutions (3.0 µL each) at 0, 0.2, 0.8, 2, 4, 10, 20 and 40 mM in DMSO were added to give final compound concentrations at 0, 2, 8, 20, 40, 100, 200 and 400 µM respectively. Immediately after addition the samples were vortexed briefly and the time zero aliquots (25 µL) withdrawn, flash frozen in liquid nitrogen and stored at -80 °C. The protein solutions were incubated at 800 rpm (Eppendorf Thermomixer), 23 °C. Additional aliquots (all 25 µL) were similarly withdrawn after […]
thawed individually and analyzed by protein mass spectrometry as described above. The total ion counts (TICs) detected for unlabelled HOIP and labelled HOIP-(5) conjugate within a peak elution range of 10 seconds were used to calculate the ratio of labelled HOIP RBR over total HOIP RBR content for each sample. The averaged data from 3 independent experiments were analyzed according to a two-step model of reversible ligand binding followed by irreversible covalent modification (Supplementary Figure S2A),11 fitted to a single exponential equation (equation 1, Supplementary Figure S2B) using GraFit (v.7). The observed rate constants (kobs) relate to Kd and kinact as depicted in equation 2 (Supplementary Figure S2C), although for compounds with weak affinities (such as fragments) the Kd is typically larger than the highest tested compound concentration (limited by aqueous solubility), and the kobs display a linear relationship to compound concentration, and a slope that equals to kinact/Kd (Figure 3D, Supplementary Figure […]
Protein labelling: The HOIP RBR domain (16 µM) in buffer (50 mM HEPES, 150 mM NaCl, pH 7.5) was incubated with compound (5) (267 µM; 16-fold excess) at ambient temperature at 600 rpm (Heidolph Instruments) for 21 h. The protein was purified on a buffer exchanged spin chromatography column (Micro Bio-spin 6, Bio-Rad Laboratories) according to the vendor’s instructions to afford a stock solution of the HOIP RBR-(5) complex at a concentration of 7.6 µM (0.33 mg/mL) as determined by Nanodrop UV spectrophotometer. […]

- kinact/Kd (gradient of kobs vs concentration, 0-400 μM, 2 μM protein): 0.97 ± 0.01 M^–1 s^–1
- ligand efficiency, LE (inferred from lower limit of Kd): < 0.24
- kinact (lower limit, following from Kd limit): > 0.0004 s⁻¹
- Kd (lower limit, kobs linear across range tested): > 400 µM
SMILES: COC(=O)/C=C/CNC(=O)c1cc2c([nH]c1=O)CCC2 [Compound 5]
